Measured values taken from patent US12371428B2 (Exelixis, Inc., priority 2019, dated 2025).
Like-named read-outs stand apart in the source and are kept apart here.

Assays:
[1] = biological target: Human Mer (residues R557-E882 with H628Q and R794A) (Homo sapiens, UniProt Q12866); test: Human Mer kinase assay, 33P-phosphoryl transfer radiometric (Example C-1, KinaseProfiler); assay type: biochemical
Description: Kinase activity and compound inhibition were investigated using the ^33P-Phosphoryl transfer radiometric kinase assay, performed using the KinaseProfiler™ service of Eurofins Pharma Discovery Services UK Limited. Dose-response experiments were performed using nine compound concentrations in a 96-well microtiter plate. For each assay, all compounds were prepared to a 50× final assay concentration (50 μM) in 100% DMSO, then diluted in a half-log series, with the final top concentration at 1 μM. This working stock of the compound was added to the assay well as the first component in the reaction, followed by the remaining components as detailed in the following assay protocols below. The positive control wells (100% kinase activity) contain all components of the reaction including 2% DMSO (control for solvent effects), except the compound of interest. Blank wells contain all components of the reaction, with the reference inhibitor, staurosporine. This reference compound was used to abolish kinase activity and generated the 0% kinase activity base-line. IC50 values were calculated by nonlinear regression analysis using the sigmoidal dose-response (variable slope) curve fit on XLFit version 5.3 (ID Business Solutions).
Example C-1: Human Mer (residues R557-E882 with H628Q and R794A, 0.7 nM) was incubated with 8 mM MOPS pH 7.0, 0.2 mM EDTA, 30 mM NaCl, 250 μM […] (SEQ ID NO:2), 10 mM magnesium acetate, and 10 μM [γ-^33P-ATP]. The reaction was initiated by the addition of the Mg/ATP mix. After incubation for 40 minutes at room temperature, the reaction was stopped by the addition of phosphoric acid to a concentration of 0.5%. A reaction aliquot of 10 μL was then spotted onto a P30 filtermat and washed four times for 4 minutes in 0.425% phosphoric acid and once in methanol prior to drying and scintillation counting. Incorporated ^33P was measured using the Wallac Microbeta scintillation counter (Perkin Elmer).

[2] = biological target: Human AXL (residues 464-885) (Homo sapiens (Human), UniProt P30530); test: Human AXL kinase assay, HTRF KinEase (Example A-2); assay type: biochemical; details: protocol of Example A-2 (other compounds)
Sequence of Human AXL (residues 464-885) (P30530 473-894): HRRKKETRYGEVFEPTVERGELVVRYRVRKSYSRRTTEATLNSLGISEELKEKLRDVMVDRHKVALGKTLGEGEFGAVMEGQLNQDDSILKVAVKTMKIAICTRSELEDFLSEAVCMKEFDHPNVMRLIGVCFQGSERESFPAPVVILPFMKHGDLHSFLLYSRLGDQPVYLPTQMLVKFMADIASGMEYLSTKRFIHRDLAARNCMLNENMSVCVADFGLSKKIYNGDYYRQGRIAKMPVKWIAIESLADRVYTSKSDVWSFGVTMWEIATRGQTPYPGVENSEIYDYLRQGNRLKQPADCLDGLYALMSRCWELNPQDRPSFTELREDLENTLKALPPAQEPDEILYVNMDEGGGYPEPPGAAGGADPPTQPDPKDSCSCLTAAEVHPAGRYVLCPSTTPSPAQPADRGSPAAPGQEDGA
Description: Kinase activity and compound inhibition were also investigated using the HTRF® KinEase assay (Cisbio Cat #62TKOPEB) per manufacturer's instructions. In short, compounds were delivered in 300 nL volumes at 10 different concentrations in DMSO (3% final) to empty 384-well assay plates (Corning cat #3824). A mixture of enzyme, […] biotynlated peptide substrate, and buffer in 10 μL volume was added. The assay was started upon the addition of ATP (at Km). The 10 μL reaction was incubated at room temperature. The reaction was stopped upon the addition of detection buffer containing streptavidin-XL665 ([…]) and TK antibody-Eu3+(5 L).
Kinase activity normalized to DMSO (100% activity) and reference compound at […] and (0% activity) was calculated using the fluorescence ratio […]. IC50 values were calculated by nonlinear regression analysis using a 4-parameter logistic curve fit in ActivityBase XE (IDBS).
The mixture was added to the pre-plated compounds. […] The reaction was incubated at room temperature for 50 min and stopped upon the addition of SA-XL665 and TK-antibody both diluted in EDTA-containing kinase detection buffer (Cisbio). The kinase activity was calculated as stated above and the IC50 values were reported.

[3] = biological target: AXL (phospho-AXL, Gas6-stimulated A-172 glioblastoma cells) (Homo sapiens (Human), UniProt P30530); test: AXL autophosphorylation ELISA in A-172 cells (Example E); assay type: cell-based; details: cellular activity; AXL autophosphorylation ELISA in A-172 cells; read-out: Axl IC50
Sequence of AXL (phospho-AXL, Gas6-stimulated A-172 glioblastoma cells) (P30530 26-894): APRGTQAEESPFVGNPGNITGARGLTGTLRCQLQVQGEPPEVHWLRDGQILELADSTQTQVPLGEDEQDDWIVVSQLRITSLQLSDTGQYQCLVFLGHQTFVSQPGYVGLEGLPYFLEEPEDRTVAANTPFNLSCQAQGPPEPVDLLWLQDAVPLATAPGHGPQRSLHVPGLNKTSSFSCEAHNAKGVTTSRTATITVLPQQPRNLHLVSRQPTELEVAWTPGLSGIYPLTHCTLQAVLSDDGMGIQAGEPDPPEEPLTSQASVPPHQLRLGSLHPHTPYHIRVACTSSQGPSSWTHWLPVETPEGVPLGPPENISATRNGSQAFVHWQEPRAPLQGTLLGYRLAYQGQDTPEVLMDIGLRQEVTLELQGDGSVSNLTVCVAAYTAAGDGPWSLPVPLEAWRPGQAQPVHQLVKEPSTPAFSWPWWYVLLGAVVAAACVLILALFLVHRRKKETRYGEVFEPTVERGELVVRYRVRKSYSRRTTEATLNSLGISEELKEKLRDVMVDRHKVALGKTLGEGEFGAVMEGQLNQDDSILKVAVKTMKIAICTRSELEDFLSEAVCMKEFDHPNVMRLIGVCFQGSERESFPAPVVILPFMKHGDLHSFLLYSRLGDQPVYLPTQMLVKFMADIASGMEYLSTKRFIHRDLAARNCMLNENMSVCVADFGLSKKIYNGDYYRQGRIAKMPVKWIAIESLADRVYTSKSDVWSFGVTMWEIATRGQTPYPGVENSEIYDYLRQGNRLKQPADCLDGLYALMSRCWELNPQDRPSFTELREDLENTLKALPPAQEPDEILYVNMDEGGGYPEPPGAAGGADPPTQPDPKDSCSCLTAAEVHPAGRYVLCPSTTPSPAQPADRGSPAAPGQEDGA
Outline: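 Phospho-AXL in lysates was quantified by ELISA, normalised to DMSO (100%) and reference inhibitor (0%) controls. IC50 by 4-parameter logistic fit.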

[4] = protocol of Example C-1 (compounds 21-27, 41-47, 99, 104)

Sequence of Human Mer (residues R557-E882 with H628Q and R794A) (Q12866 21-999 limits assumed, stated change not applied): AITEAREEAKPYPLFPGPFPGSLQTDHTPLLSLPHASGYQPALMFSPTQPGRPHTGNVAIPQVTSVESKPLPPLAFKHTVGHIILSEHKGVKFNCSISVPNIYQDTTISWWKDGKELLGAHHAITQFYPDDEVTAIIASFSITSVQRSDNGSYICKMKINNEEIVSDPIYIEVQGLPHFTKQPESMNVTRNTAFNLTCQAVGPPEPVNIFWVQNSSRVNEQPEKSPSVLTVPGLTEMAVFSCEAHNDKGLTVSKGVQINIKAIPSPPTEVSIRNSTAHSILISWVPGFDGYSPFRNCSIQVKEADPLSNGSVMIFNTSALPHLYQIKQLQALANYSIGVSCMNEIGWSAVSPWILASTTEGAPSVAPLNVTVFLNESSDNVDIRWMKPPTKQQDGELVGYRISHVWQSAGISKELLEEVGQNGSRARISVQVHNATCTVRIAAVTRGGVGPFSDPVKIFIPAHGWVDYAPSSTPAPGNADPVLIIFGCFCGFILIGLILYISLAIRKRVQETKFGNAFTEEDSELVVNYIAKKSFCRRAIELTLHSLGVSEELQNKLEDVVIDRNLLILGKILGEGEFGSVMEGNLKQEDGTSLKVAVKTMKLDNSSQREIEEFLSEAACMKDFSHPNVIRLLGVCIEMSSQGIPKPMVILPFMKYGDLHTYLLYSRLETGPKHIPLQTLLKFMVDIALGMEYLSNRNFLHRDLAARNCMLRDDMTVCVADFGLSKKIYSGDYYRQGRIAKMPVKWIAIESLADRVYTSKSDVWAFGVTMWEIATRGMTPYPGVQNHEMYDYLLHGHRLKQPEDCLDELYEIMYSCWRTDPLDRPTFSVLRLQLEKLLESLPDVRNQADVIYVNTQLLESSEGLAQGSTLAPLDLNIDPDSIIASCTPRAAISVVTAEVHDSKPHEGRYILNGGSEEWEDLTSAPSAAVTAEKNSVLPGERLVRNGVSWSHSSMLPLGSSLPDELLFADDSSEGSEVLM

IC50 [1, 4] [nM] | IC50 [3] [nM] | Structure (SMILES) | further results
< 100 |  | COc1cc2nccc(Oc3ccc(NC(=O)c4cn(C(C)C)c(C)c(-c5ccc(F)cc5)c4=O)cc3F)c2nc1OC [Compound 21, N-[4-[(6,7-Dimethoxy-1,5-naphthyridin-4-yl)oxy]-3-fluorophenyl]-5-(4-fluorophenyl)-6-methyl-4-oxo-1-propan-2-ylpyridine-3-carboxamide] | 
< 100 |  | COc1cc2nccc(Oc3ccc(NC(=O)c4cn(C(C)C)c(C)c(-c5ccc(F)cc5)c4=O)cc3F)c2cc1OC [Compound 22, N-[4-(6,7-Dimethoxyquinolin-4-yl)oxy-3-fluorophenyl]-5-(4-fluorophenyl)-6-methyl-4-oxo-1-propan-2-ylpyridine-3-carboxamide] | 
 |  | COc1cc2nccc(Oc3ccc(NC(=O)c4cn(C(C)C)c(C)c(-c5ccc(Cl)c(Cl)c5)c4=O)cc3F)c2cc1OC [Compound 23, 5-(3,4-Dichlorophenyl)-N-[4-(6,7-dimethoxyquinolin-4-yl)oxy-3-fluorophenyl]-6-methyl-4-oxo-1-propan-2-ylpyridine-3-carboxamide] | IC50 [1]: 100 to 300 nM
< 100 |  | COc1cc2nccc(Oc3ccc(NC(=O)c4cn(C(C)C)c(C)c(-c5ccc(F)c(Cl)c5)c4=O)cc3F)c2nc1OC [Compound 24, 5-(3-Chloro-4-fluorophenyl)-N-[4-[(6,7-dimethoxy-1,5-naphthyridin-4-yl)oxy]-3-fluorophenyl]-6-methyl-4-oxo-1-propan-2-ylpyridine-3-carboxamide] | 
< 100 |  | COc1cc2nccc(Oc3ccc(NC(=O)c4cn(C(C)C)c(C)c(-c5ccc(Cl)c(Cl)c5)c4=O)cc3F)c2nc1OC [Compound 25, 5-(3,4-Dichlorophenyl)-N-[4-[(6,7-dimethoxy-1,5-naphthyridin-4-yl)oxy]-3-fluorophenyl]-6-methyl-4-oxo-1-propan-2-ylpyridine-3-carboxamide] | 
< 100 |  | COc1cc2nccc(Oc3ccc(NC(=O)c4cn(C5CCCC5)c(C)c(-c5ccc(F)cc5)c4=O)cc3F)c2nc1OC [Compound 26] | 
< 100 |  | COc1cc2nccc(Oc3ccc(NC(=O)c4cn(C5CCCC5)c(C)c(-c5ccc(F)c(Cl)c5)c4=O)cc3F)c2nc1OC [Compound 27, 5-(3-Chloro-4-fluorophenyl)-1-cyclopentyl-N-[4-[(6,7-dimethoxy-1,5-naphthyridin-4-yl)oxy]-3-fluorophenyl]-6-methyl-4-oxopyridine-3-carboxamide] | 
< 100 |  | COc1cc2nccc(Oc3ccc(NC(=O)c4cn(C5CC5)cc(-c5ccc(F)cc5)c4=O)cc3F)c2nc1OC [Compound 41, 1-Cyclopropyl-N-[4-[(6,7-dimethoxy-1,5-naphthyridin-4-yl)oxy]-3-fluorophenyl]-5-(4-fluorophenyl)-4-oxopyridine-3-carboxamide] | 
< 100 |  | COc1cc2nccc(Oc3ccc(NC(=O)c4cncc(-c5ccc(F)cc5)c4O)cc3F)c2nc1OC [Compound 42, N-[4-[(6,7-Dimethoxy-1,5-naphthyridin-4-yl)oxy]-3-fluorophenyl]-5-(4-fluorophenyl)-4-hydroxypyridine-3-carboxamide] | 
< 100 |  | COc1cc2nccc(Oc3ccc(NC(=O)c4cn(C(C)C)cc(-c5ccc(F)cc5)c4=O)cc3F)c2cc1OC [Compound 43, N-[4-(6,7-Dimethoxyquinolin-4-yl)oxy-3-fluorophenyl]-5-(4-fluorophenyl)-4-oxo-1-propan-2-ylpyridine-3-carboxamide] | 
< 100 |  | COc1cc2nccc(Oc3ccc(NC(=O)c4cn(C(C)C)cc(-c5ccc(F)cc5)c4=O)cc3F)c2nc1OC [Compound 44, N-[4-[(6,7-Dimethoxy-1,5-naphthyridin-4-yl)oxy]-3-fluorophenyl]-5-(4-fluorophenyl)-4-oxo-1-propan-2-ylpyridine-3-carboxamide] | 
< 100 |  | COc1cc2nccc(Oc3ccc(NC(=O)c4cn(C)cc(-c5ccc(F)cc5)c4=O)cc3F)c2nc1OC [Compound 45, N-[4-[(6,7-Dimethoxy-1,5-naphthyridin-4-yl)oxy]-3-fluorophenyl]-5-(4-fluorophenyl)-1-methyl-4-oxopyridine-3-carboxamide] | 
< 100 |  | COc1cc2nccc(Oc3ccc(NC(=O)c4cn(C5CCCC5)cc(-c5ccc(F)cc5)c4=O)cc3F)c2nc1OC [Compound 46, 1-Cyclopentyl-N-[4-[(6,7-dimethoxy-1,5-naphthyridin-4-yl)oxy]-3-fluorophenyl]-5-(4-fluorophenyl)-4-oxopyridine-3-carboxamide] | 
< 100 |  | COc1cc2nccc(Oc3ccc(NC(=O)c4cn(C5COC5)cc(-c5ccc(F)cc5)c4=O)cc3F)c2nc1OC [Compound 47, N-[4-[(6,7-Dimethoxy-1,5-naphthyridin-4-yl)oxy]-3-fluorophenyl]-5-(4-fluorophenyl)-1-(oxetan-3-yl)-4-oxopyridine-3-carboxamide] | 
< 100 |  | CNc1ncc(C(=O)Nc2ccc(Oc3ccnc4cc(OC)c(OC)nc34)c(F)c2)c(=O)n1-c1ccc(F)cc1 [Compound 99, N-[4-[(6,7-Dimethoxy-1,5-naphthyridin-4-yl)oxy]-3-fluorophenyl]-1-(4-fluorophenyl)-2-(methylamino)-6-oxopyrimidine-5-carboxamide] | 
 | < 100 | COc1cc2nccc(Oc3ccc(NC(=O)c4c(C)nc(C)c(-c5ccc(F)cc5)c4O)cc3F)c2nc1OC [Compound 154, N-[4-[(6,7-Dimethoxy-1,5-naphthyridin-4-yl)oxy]-3-fluorophenyl]-5-(4-fluorophenyl)-4-hydroxy-2,6-dimethylpyridine-3-carboxamide] | IC50 [2]: < 100 nM
 | < 100 | COc1cnc2c(Oc3ccc(NC(=O)c4cn(C)c(C)c(-c5ccc(F)cc5C)c4=O)cc3)ccnc2c1 [Compound 187, 5-(4-Fluoro-2-methylphenyl)-N-[4-[(7-methoxy-1,5-naphthyridin-4-yl)oxy]phenyl]-1,6-dimethyl-4-oxopyridine-3-carboxamide] | IC50 [2]: < 100 nM
 | < 100 | COc1cc2nccc(Oc3ccc(NC(=O)c4ccc(C)n(-c5ccc(F)cc5)c4=O)cc3F)c2nc1OC [Compound 254, N-[4-[(6,7-Dimethoxy-1,5-naphthyridin-4-yl)oxy]-3-fluorophenyl]-1-(4-fluorophenyl)-6-methyl-2-oxopyridine-3-carboxamide] | IC50 [2]: < 100 nM
 | < 100 | COc1cc2nccc(Oc3ccc(NC(=O)c4cn(CC(F)(F)F)c(C)c(-c5ccc(F)cc5)c4=O)cc3)c2cc1OC [Compound 260, N-[4-(6,7-Dimethoxyquinolin-4-yl)oxyphenyl]-5-(4-fluorophenyl)-6-methyl-4-oxo-1-(2,2,2-trifluoroethyl)pyridine-3-carboxamide] | IC50 [2]: < 100 nM
 | < 100 | COCCOc1ccc2nccc(Oc3ccc(NC(=O)c4cnc(C)c(-c5ccc(F)cc5)c4O)cc3F)c2n1 [Compound 348, N-[3-fluoro-4-[[6-(2-methoxyethoxy)-1,5-naphthyridin-4-yl]oxy]phenyl]-5-(4-fluorophenyl)-4-hydroxy-6-methylpyridine-3-carboxamide] | IC50 [2]: < 100 nM
 | < 100 | COCCOc1ccc2nccc(Oc3ccc(NC(=O)c4c(C)nc(C)c(-c5ccc(F)cc5)c4O)cc3F)c2n1 [Compound 349, N-[3-fluoro-4-[[6-(2-methoxyethoxy)-1,5-naphthyridin-4-yl]oxy]phenyl]-5-(4-fluorophenyl)-4-hydroxy-2,6-dimethylpyridine-3-carboxamide] | IC50 [2]: < 100 nM
 | < 100 | COc1cc2nccc(Oc3ccc(NC(=O)c4cnc(SC(C)C)n(-c5ccc(F)cc5)c4=O)cc3)c2cc1OC [Compound 539, N-[4-(6,7-dimethoxyquinolin-4-yl)oxyphenyl]-1-(4-fluorophenyl)-6-oxo-2-propan-2-ylsulfanylpyrimidine-5-carboxamide] | 
